Data set [1] relates to mouse newborns. The note with it: for Surviving rate: after the ending of administration; for Effect on increment of animals' body weight suppressed by the toxicity of BSO: mouse, in vivo. The method, then: Experimental cataract was prepared according to the method of Calvin et al., Science, vol. 233, pp 553-555 (1986). More particularly, L-buthioninesulfoximine was administered subcutaneously to the ICR male mice at a dose of 4 mmol/kg for 3 successive days from the 9th day to the 11th day after birth every 2.5 hours 4 times a day to cause cataract. The rate of cataractgenesis was determined on the 16th day after birth. The test compounds were also given subcutaneously for 3 days from the 9th day to the 11th day after birth 4 times a day 1 hour before the administration of L-buthionine sulfoximine and thereafter the test compounds studied only were subcutaneously given 4 times a day at an interval of 2.5 hours on the consecutive 12th and 13th days after birth and the protective effect of the test compound on cataract formation was examined on the 16th day after birth. As the control compounds, glutathione, glutathione monoethyl ester, and γ-L-glutamyl-L-cysteine were also examined.
Acute toxicity of the present compound was examined where it is administered according to the schedule of Example 9 and compared with there of controls, glutathione, glutathione monoethyl ester, and γ-L-glutamyl-L-cysteine.

In data set [2] the test system is liver cells. Nature of the data set: Prevention of necrosis of liver cells by carbon tetrachloride (GPT activity, Trypan Blue staining). The note with it: 1 mM for 2 hours after D,L-buthionine sulfoximine removal, then carbon tetrachloride 0.5 μl/ml for 1 hour; for Survival rate: Trypan Blue. It counts as cell-based, mice. The method, then:
(§1) D, L-buthionine sulfoximine was added to the cultured liver cells to a density of 0.5 mM and cultivation was carried on for 16 hours. […] The changes of cellular glutathione levels were measured at that time. Thereafter the compounds studied were removed from the respective cultures whose culture media were then replaced with new ones containing carbon tetrachloride at a density of 0.5 μl/ml. After 1-hour cultivation, the action to prevent the necrosis of liver cells was examined by measuring the GPT activity of the respective culture supernatants and Trypan Blue staining test.
(§2) In Table 3, the changes of cellular glutathione levels are expressed by relative values based on the untreated value set at 100 and the action to prevent the necrosis of liver cells is indicated by the GPT activity of the culture supernatant and survival rate.

For data set [3], the system named is experimentally developed cataract induced by L-buthionine sulfoximine. In words: Protective effect on experimental cataract induced by L-buthionine sulfoximine. The following applies: 16th day after birth. It is filed as in vivo, mice. The source says: The cataract development rate in the table means the ratio of the experimental animals developing cataract to all the animals examined (11 to 12 mice per group) and the cataractous eye rate means the ratio of cataractous eyes to the whole number of eyes examined.

The test system of data set [4] is liver cells. In words: Recovery of cellular glutathione levels after decrease by D,L-buthionine sulfoximine and removal of the inhibitor. It counts as cell-based, mice. The following applies: untreated = 100. The method, then: as §1, §2
Data set [5] deals with liver cells. Nature of the data set: Recovery of glutathione levels of liver cells after carbon tetrachloride treatment. The following applies: 100 = before treatment. It is filed as cell-based, mice. The method, then: After carbon tetrachloride was added to the cultured liver cells at a concentration of 0.5 μl/ml, culture was continued for 1 hour. […] One hour later, the change of the cellular glutathione level was measured.

Data set [6] has as its system ICR male mice. In words: Mitigation of decrease of tissue glutathione levels, compound and L-buthionine sulfoximine given alternately to mice. It is filed as in vivo. The following applies: 2.5 mmol/kg s.c. alternately with L-buthionine sulfoximine 4 mmol/kg; versus saline. The procedure: The compound of this invention was administered in the same way as Example 6, and L-buthionine sulfoximine (BSO) was administered likewise in dosage of 4 mmol/kg one hour after every administration of said compound. The contents of glutathione in the livers and kedneys were measured according to the methods described in Example 6 every 2.5 hours after the initial administration of the present compound. As controls, saline was administered in place of the present compound to take the similar measurements. FIGS. 2A and 2B shown the results.

Data set [7] has as its system ICR male mice. In words: Recovery of tissue glutathione levels in mice pretreated with L-buthionine sulfoximine. It is filed as in vivo. The note with it: 2.5 mmol/kg s.c. 4 times, day after L-buthionine sulfoximine 4 mmol/kg x4. The method, then: ICR male mice (9-day old) were given L-buthionine sulfoximine in dosage of 4 mmol/kg four times at an interval of 2.5 hours to decrease their tissue glutathione levels beforehand. The next day, the mice were given subcutaneously 2.5 mmol/kg of the present compound or saline 4 times at an interval of 2.5 hours. Glutathione monoethyl ester (GSHOET) was also given likewise in dosage of 2.5 mmol/kg as a control. The contents of glutathione in the livers and kidneys were measured according to the methods described in Example 6.

Data set [8] deals with ICR male mice. Nature of the data set: Action to increase tissue glutathione levels in mice. It counts as in vivo. The following applies: 9-day old mice. The procedure: ICR male mice (9-day old) were subcutaneously given 2.5 mmol/kg of the compound of this invention (r-Glu-Cys OET) or control compounds (glutathione (GSH), γ-L-glutamyl-L-cysteine (r-Glu-Cys)) four times at 2.5-hour intervals. The mice were dissected and their livers and kidneys were removed before the administration and every 2.5 hour after the administration to have their glutathione (GSH) level determined. […]

The subject of data set [9] is liver cells. Nature of the data set: Mitigation of decrease in glutathione levels in liver cells on coexistence with D,L-buthionine sulfoximine. It is filed as cell-based, mice. The note with it: 13 hours later, 100 = before addition. The method, then:
The cultured liver cells were cultured for 13 hours after the addition of D,L-buthionine sulfoximine to the concentration of 0.3 mM and the present compound to the concentration of 1 mM and then the levels of cellular glutathione were measured. The similar measurements were made on the controls in which nothing was added and in which D,L-buthionine sulfoximine only was added.

Data set [10] concerns ICR male mice. Nature of the data set: Detoxification of renal toxicity induced by cisplatin (BUN). It counts as in vivo. The note with it: cisplatin 20 mg/kg i.p. + compound 2.5 mmol/kg i.p. 4 times a day for 5 days; one week after cisplatin. An excerpt:
The control groups were given saline instead of the present compound.

Data set [11] concerns liver cells. Nature of the data set: Action to increase the glutathione levels in the liver cells (primary cultured hepatocytes). It is filed as cell-based, mice. The following applies: 1 mM, 100 = before addition. The procedure:
Hepatocyte (sample) was prepared according to the method of Nakamura et al. published in the Protein, Nucleic Acid, and Enzyme, vol. 24, pp 55-76 (1981), partly adopting the method of Wang et al. reported in the In Vitro, vol. 21, pp 526-530 (1985). The liver of mice was purfused with 0.05% collagenase, and cells were collected by centrifugation, and were further centrifuged with percoll to collect the parenchymal hepatocytes. The obtained hepatocytes were dispersed in the Williams' medium E containing 10% bovine fetal serum, dexamethasone (10^-6 M), insulin (1 μg/ml), and antibiotic, and were inoculated into the culture plate at a density of 1×10^5 cells/0.2 ml/cm^2. After unattached cells were removed once 1.5 hours later, the cultivation was continued at 37° C. in an atomosphere of 5% CO2 -95% air. The compound of this invention was added to the culture system to a concentration of 1 mM to measure the time lapsed changes of the cellular glutathione level according to the method reported by Owens and Belcher, Biochem. J., vol. 94, pp 705-711 (1965) and Tietze, Anal. Biochem., vol. 27, pp 502-522 (1969). The similar measurements were also made without the addition of the compound for comparison.

The conditions of data set [12]: cited from earlier work.
Where [13] appears, read: L-buthionine sulfoximine + compound 1.25 mmol/kg.
The mark [14] stands for this setting: L-buthionine sulfoximine + compound 2.5 mmol/kg.
Where [15] appears, read: L-buthionine sulfoximine + compound 1.25 mmol/kg s.c.
[16] abbreviates: 1 mM added for 2 hours after removal of D,L-buthionine sulfoximine (0.5 mM, 16 hours).
Setting [17] is: L-buthionine sulfoximine 4 mmol/kg alone.
[18] abbreviates: L-buthionine sulfoximine + compound 2.50 mmol/kg s.c.
Setting [19] is: 2.5 mmol/kg subcutaneously four times at 2.5-hour intervals.

Where two headings read alike, the source gives them in different places.

For the compound `N[C@@H](CCC(=O)N[C@@H](CS)C(=O)O)C(=O)O` [γ-L-glutamyl-L-cysteine], the Surviving rate in data set [1] (setting [13]) came to 75%. Moreover, in data set [1] (setting [14]), the Surviving rate was found to be 0%. Also, in data set [1], the “Effect on increment of animals' body weight suppressed by the toxicity of BSO” value (shortened to “Effect on increment”) is “such effect was not seen”. For the same compound, in [2], the “GPT activity of culture supernatant” value is listed as 60 until/ml and the Survival rate is 10%. In data set [3] (setting [15]), the Cataract development rate is reported as 66.7% and the Cataractous eye rate came out at 77.8%. Moreover, in [4] (setting [16]), the “Cellular glutathion level (relative value)” value came to 10.
In turn, `CCCCS(=N)(=O)CCC(N)C(=O)O` [L-buthionine sulfoximine, reference compound] displayed a Surviving rate in data set [1] (setting [17]) of 100%. In data set [3] (setting [17]), this compound gave a Cataract development rate of 91.7% and a Cataractous eye rate of 91.7%.
With `ClC(Cl)(Cl)Cl` [carbon tetrachlodie, carbon tetrachloride, reference compound], the “Cellular glutathione level (relative value)” value in data set [5] (after carbon tetrachloride 0.5 μl/ml, 1 hour) came out at 33.
Take `CCOC(=O)[C@H](CSSC[C@H](NC(=O)CC[C@H](N)C(=O)O)C(=O)OCC)NC(=O)CC[C@H](N)C(=O)O` [γ-L-glutamyl-L-cystein ethyl ester of oxidized type dimer]: the Surviving rate in [1] (setting [14]) stood at 100%. In addition, in [3] (setting [18]), the Cataract development rate is 30.0% and the Cataractous eye rate is reported as 35.0%.
`CCOC(=O)[C@H](CS)NC(=O)CC[C@H](N)C(=O)O` [γ-L-glutamyl-L-cysteine ethyl ester]: the “Cellular glutathione level (relative value)” value in [5] (1 mM added after removal of carbon tetrachloride, one hour later) was 67; in [9] (coexistence of D,L-buthionine sulfoximine 0.3 mM and compound 1 mM), 30; in [11] (0.5 hours) it was 140; in data set [11] (1 hour), 170; in [11] (2 hours), 200. Besides, the “Tissue glutathione level, kidney (FIG. 2B)” value in data set [6] is on record as “mitigate the decrease of tissue glutathione levels”. Also, the “Tissue glutathione level, liver (FIG. 2A)” value in data set [6] is listed as “mitigate the decrease of tissue glutathione levels”. Also, the “Recovery of tissue glutathione level, kidney (FIG. 3B)” value in [7] is reported as “far more excellent effect in making the tissular glutathion level recover to the normal level as compared with glutathione monoethyl ester”. Moreover, the “Recovery of tissue glutathione level, liver (FIG. 3A)” value in data set [7] is given as “same effectiveness as glutathione monoethyl ester”. In addition, in data set [1], the “Effect on increment” value is listed as “showed an effect to mitegate suppressed increment of animals' body weight”. In [8] (setting [19]), the “Tissue glutathione level, kidney (FIG. 1B)” value is “far more excellent effect than glutathione and γ-L-glutamyl-L-cysteine in increasing the tissue glutathione levels”. The “Tissue glutathione level, liver (FIG. 1A)” value in [8] (setting [19]) is “far more excellent effect than glutathione and γ-L-glutamyl-L-cysteine in increasing the tissue glutathione levels”. The “SH levels in eyeballs, DTNB method (FIG. 1C)” value in data set [8] (5 mmol/kg) is listed as “improve the SH levels remarkably”. For the same compound, in data set [10], the BUN stood at 35.7 mg/dL. Besides, the “GPT activity of culture supernatant” value in [2] worked out at 3 until/ml. This compound gave a Survival rate in data set [2] of 100%. Besides, the Cataract development rate was 50.0% in data set [3] (setting [15]) and 0% in data set [3] (setting [18]). Moreover, the Cataractous eye rate is recorded as 41.7% in data set [3] (setting [15]) and 0% in [3] (setting [18]). For the same compound, in [4] (setting [16]), the “Cellular glutathion level (relative value)” value is reported as 50.
`N[C@@H](CCC(=O)N[C@@H](CS)C(=O)NCC(=O)O)C(=O)O` [Glutathione, glutathione]: the Surviving rate in data set [1] (setting [13]) came out at 100%. Further, in data set [1] (setting [14]), the Surviving rate was found to be 50%. Also, the “Effect on increment” value in data set [1] is given as “such effect was not seen”. For the same compound, in data set [2], the “GPT activity of culture supernatant” value worked out at 60 until/ml and the Survival rate is 10%. Also, in data set [3] (setting [15]), the Cataract development rate was 75.0% and the Cataractous eye rate is 70.8%. Besides, in data set [4] (setting [16]), the “Cellular glutathion level (relative value)” value was 10. The “half life in blood” value in data set [12] was “several minutes”.
As to `CCCCS(=N)(=O)CCC(N)C(=O)O` [D,L-buthionine sulfoximine, D,L-buthionine-sulfoximine, reference compound], in data set [9] (D,L-buthionine sulfoximine 0.3 mM alone), the “Cellular glutathione level (relative value)” value was found to be 17. Moreover, the “Cellular glutathion level (relative value)” value in data set [4] (D,L-buthionine sulfoximine 0.5 mM, 16 hours) came to 1.

The record behind these values is patent publication US4927808A, “γ-L-glutamyl-L-cysteine ethyl ester and pharmaceutical compositions containing the same as an effective ingredient” (Teijin Limited, priority 1986, dated 1990).
